These results are taken from patent EP4763838A1, “COMPOUND AND USE THEREOF” (Ocean University of China, priority 2023, dated 2025).

One test concerns the target T1, BRD protein (Homo sapiens, UniProt O60885).
T1 construct: endogenous in cells; host or cells: MV-4-11
Kind of test: Reduction of bromodomain protein (BRD) expression levels in MV-4-11 cells (Western blot, DC50 and Dmax). The class given is cell-based. Conditions: BRD4 Western blot, GAPDH internal reference; for DC50: 24 hours of treatment, 0.1, 1, 10 and 20 µM; for Dmax: MV4-11, 24 hours of treatment, 0.1, 1, 10 and 20 µM. On the procedure: The human […] MV-4-11 cells selected in this experiment were cultured in Iscove's Modified Dulbecco's Medium (IMDM) culture medium containing 10% fetal bovine serum (Gibco, USA) in an incubator under the conditions of at 37°C, 5% CO2 and 95% humidity. When the growth density reached 80%, a culture medium containing the compound was selected, and the cells were inoculated into a 6-well plate with a cell density of 1×10^6/ml, so that the final concentrations of the compound were 0.1, 1, 10 and 20 µM. After 24 hours of treatment, the cells were collected, washed twice with PBS and lysed with an RIPA lysis buffer containing a protease inhibitor and a phosphatase inhibitor. The lysed mixed solution was centrifuged to obtain a total protein extract. The concentration of the protein in the extract was detected by using a BCA method.
Protein electrophoresis was performed via SDS-PAGE, followed by constant-current electrotransfer at 200 mA for 150 min to transfer proteins onto a polyvinylidene fluoride (PVDF) membrane. The PVDF membrane was placed in 5% skim milk and blocked for 1 h at room temperature. BRD4 (#13440, CST) (1:1000) and C-MYC (ab32072, 1:1000) were added for incubation overnight at 4°C. The membrane was washed with Tris buffered saline Tween (TBST) for 3 times, with 10 min each time. The mixture of the membrane and a secondary antibody were incubated for 60 min at room temperature. The membrane was washed with TBST for 3 times, with 10 min each time. The ECL light-emitting liquid was dropwise added for exposure. Each sample was simultaneously detected using GAPDH protein as an internal reference. The protein profile was analyzed for grayscale values using analysis software ImageJ. The gray scale correction value of each sample was calculated by using the formula was used below: gray scale correction value = (target protein gray scale value/corresponding internal reference gray scale value) × 10^3Then, the calculated gray scale correction value was compared with a control gray scale correction value to calculate a degradation rate. Then, nonlinear curve fitting was performed on a logarithmic concentration-inhibition rate using Prism to obtain the DC50 and Dmax values of the compound.
Table 13 summarizes the evaluation of the reduction effects of protein degraders PRTB-01 to 16 on BRD protein expression levels. DC50 represents the concentration of the protein degrader when it induces 50% of the BRD protein to be degraded, with the level classified as A (DC50<1 µM), B (DC50 1 to 10 µM), or C (DC50>10 µM). Dmax represents the proportion of the maximum degree of […] protein degradation induced by the protein degrader to the total amount of BRD protein, with the level graded as A (Dmax>85%), B (Dmax85~50%), or C ([…]<50%) Table 13 Evaluation of protein degraders PRTB-01 to 16 in reducing BRD protein expression levels

The target of a further test is T2, E3 ubiquitin ligase CRBN (Homo sapiens, UniProt Q96SW2).
T2 construct: purchased PE (PerkinElmer) 64BDCRBNPEG
Kind of test: Binding activity to E3 ubiquitin ligase CRBN (HTRF competitive binding with XL665-labeled thalidomide, Cereblon binding kit). As to conditions: competition with XL665-labeled thalidomide for GST-labelled CRBN protein, 3 h at room temperature. How it is done: The binding activity of the compound disclosed in the present patent to the E3 ubiquitin ligase CRBN was determined by competitive binding of the disclosed compound with XL665-labeled thalidomide to the CRBN protein, thereby preventing the occurrence of fluorescence resonance energy transfer (FRET). Accordingly, the binding affinity of the compound to the CRBN protein was determined.
CRBN binding activity test kit (CEREBLON BINDING KITS (PE, 64BDCRBNPEG)).
The assay was based on a homogeneous time-resolved fluorescence (HTRF) technology. When a donor and an acceptor were in close proximity, the donor transferred energy to the acceptor so that the acceptor was excited to emit an emission light 665 nm.
The donor used in the kit of the present disclosure was a europium-labeled GST antibody (GST Eu Cryptate Antibody), and the acceptor was thalidomide labeled with XL665 (Thalidomide-Red reagent). The donor bound to the CRBN protein comprising a GST label. The compound disclosed in the present patent competitively bound to the CRBN protein with thalidomide. The binding activity of the compound was determined according to the fluorescence value emitted by the acceptor at 665 nm. The stronger binding force of the compound indicated the weaker signal.
The donor and the acceptor were diluted 50-fold respectively by using a kit buffer (PROTAC binding buffer 1). The CRBN protein was diluted 45-fold. The 8 mM solution of the compound disclosed in the present patent was diluted 10-fold with 1X diluent from the kit, followed by 5-fold serial dilutions for a total of 7 consecutive dilutions.
5 µl of compound, 5 µl of diluted CRBN protein and 10 µl of donor-acceptor isovolumetric mixture were sequentially added to each well of a white 384-well plate (PE, Part number:6008280). The above system was incubated for 3 h at room temperature.
A ratio of acceptor to donor emission signals for each individual well was calculated. Ratio = signal value at 665 nm/signal value at 620 nm * 10^4 Coefficient of variation (CV) = standard deviation (SD)/average Ratio × 100 [formula]
The IC50 value was calculated based on the compound concentration, Ratio and the coefficient of variation by using GraphPad Prism. Table 10 Binding activity of compounds 1-18 to E3 ubiquitin ligase CRBN

SMILES strings stand for the structures. “And” between values parts separate entries of the source, which are not always exact repeats. Equal values may be shown once. Where a name gives a salt, the structure may show the parent alone. Read-outs that look alike come from different tables or passages of the source.

Turning to `Cc1sc2c(c1C)C(c1ccc(Cl)cc1)=N[C@@H](CC(=O)NCCOCC(=O)N1CCN(c3ccc(C4CCC(=O)NC4=O)nn3)CC1)c1nnc(C)n1-2` (stereo partly shown) [PRTB-06], at BRD protein, the DC50 is 1 to 10 µM and the Dmax was 50 to 85%.

For the molecule `Cc1sc2c(c1C)C(c1ccc(Cl)cc1)=N[C@@H](CC(=O)NCCCCCCNC(=O)COc1ccc(C3CCC(=O)NC3=O)nn1)c1nnc(C)n1-2` (stereo partly shown) [PRTB-03], on BRD protein, the DC50 was 1 to 10 µM and the Dmax is less than 50%.

In the case of `CC(C)c1cc(C2CCC(=O)NC2=O)nnc1N1CCNCC1` (stereo not shown) [Compound 23, 3-(5-isopropyl-6-(piperazin-1-yl)pyridazin-3-yl)piper idine-2,6-dione hydrochloride salt], the IC50 at E3 ubiquitin ligase CRBN was 100 µM.

In turn, `COc1cc(N2CCNCC2)nnc1C1CCC(=O)NC1=O` (stereo not shown) [Compound 16, 3-(4-methoxy-6-(piperazin-1-yl)pyridazin-3-yl)piper idine-2,6-dione hydrochloride salt] showed an IC50 at E3 ubiquitin ligase CRBN of 50 µM.

As for `Cc1sc2c(c1C)C(c1ccc(Cl)cc1)=N[C@@H](CC(=O)NCCOCC(=O)N1CCN(c3ccc(N4CCC(=O)NC4=O)nn3)CC1)c1nnc(C)n1-2` [PRTB-08], on BRD protein, the DC50 lay in the range of 1 to 10 µM and the Dmax was in the range of 50 to 85%.

With `CN(C)Cc1cc(C2CCC(=O)NC2=O)nnc1N1CCNCC1` (stereo not shown) [Compound 30, 3-(5-((dimethylamino)methyl)-6-(piperazin-1-yl)pyridazin-3-yl)piperidine-2,6-dione bis-hydrochloride salt], at E3 ubiquitin ligase CRBN (read-out: IC50), the IC50 is > 50 µM and 100 µM.

Regarding `[2H]C1(c2ccc(N3CCNCC3)nn2)CCC(=O)NC1=O` (stereo not shown) [Compound 39, 3-(6-(piperazin-1-yl)pyridazin-3-yl)piperidine-2,6-dione-3-dhydrochloride salt], at E3 ubiquitin ligase CRBN, the half-inhibitory concentration (IC50) was determined as 50 µM.

At E3 ubiquitin ligase CRBN, `O=C1CCC(c2nnc(N3CCNCC3)cc2-c2ccccc2)C(=O)N1` (stereo not shown) [Compound 19, 3-(4-phenyl-6-(piperazin-1-yl)pyridazin-3-yl)piperidine-2,6-dione hydrochloride salt] came in with an IC50 of more than 100 µM.

In the case of `O=C1CCC(c2cc(C3CC3)c(N3CCNCC3)nn2)C(=O)N1` (stereo not shown) [Compound 24, 3-(5-cyclopropyl-6-(piperazin-1-yl)pyridazin-3-yl)pip eridine-2,6-dione hydrochloride salt], on E3 ubiquitin ligase CRBN, the IC50 was more than 50 µM.

For the molecule `O=C1CCC(F)(c2ccc(N3CCNCC3)nn2)C(=O)N1` (stereo not shown) [Compound 38, 3-fluoro-3-(6-(piperazin-1-yl)pyridazin-3-yl)piperidine-2,6-dione hydrochloride salt], the half-maximal inhibitory concentration (IC50) at E3 ubiquitin ligase CRBN was found to be 50 µM.

At E3 ubiquitin ligase CRBN, `COc1nnc(C2CCC(=O)NC2=O)cc1N1CCNCC1` (stereo not shown) [Compound 41, 3-(6-methoxy-5-(piperazin-1-yl)pyridazin-3-yl)piper idine-2,6-dione hydrochloride salt] gave an IC50 of 50 µM.

As to `O=C1CCC(c2ccc(N3CCC[C@H]3CO)nn2)C(=O)N1` (stereo partly drawn) [Compound 6, 3-(6-((S)-2-(hydroxymethyl)pyrrolidin-1-yl)pyridazin-3-yl)piperidine-2,6-dione], the IC50 at E3 ubiquitin ligase CRBN is 50 µM.

With `CCc1cc(C2CCC(=O)NC2=O)nnc1N1CCNCC1` (stereo not shown) [Compound 22, 3-(5-ethyl-6-(piperazin-1-yl)pyridazin-3-yl)piperidine-2,6-dione hydrochloride salt], at E3 ubiquitin ligase CRBN, the IC50 is more than 50 µM.

On to `CN(C)Cc1cc(N2CCNCC2)nnc1C1CCC(=O)NC1=O` (stereo not shown) [Compound 18, 3-(4-((dimethylamino)methyl)-6-(piperazin-1-yl)pyridazin-3-yl)piperidine-2,6-dionebis hydrochloride salt], for which, on E3 ubiquitin ligase CRBN (read-out: IC50), the IC50 is > 50 µM and 100 µM.

For `COc1nnc(C2CCC(=O)NC2=O)cc1N1CCN(C(=O)COCCNC(=O)C[C@@H]2N=C(c3ccc(Cl)cc3)c3c(sc(C)c3C)-n3c(C)nnc32)CC1` (stereo partly shown) [PRTB-16], at BRD protein, the DC50 was more than 10 µM and the Dmax was less than 50%.

At BRD protein, `Cc1sc2c(c1C)C(c1ccc(Cl)cc1)=N[C@@H](CC(=O)NCCCn1cc(C#Cc3ccc(C4CCC(=O)NC4=O)nn3)cn1)c1nnc(C)n1-2` (stereo partly shown) [PRTB-15] yielded a DC50 of less than 1 µM and a Dmax of more than 85%.

For the molecule `Cc1sc2c(c1C)C(c1ccc(Cl)cc1)=N[C@@H](CC(=O)NCCCCCNC(=O)COc1ccc(C3CCC(=O)NC3=O)nn1)c1nnc(C)n1-2` (stereo partly shown) [PRTB-02], at BRD protein, the DC50 is less than 1 µM and the Dmax was more than 85%.

As for `Cc1sc2c(c1C)C(c1ccc(Cl)cc1)=N[C@@H](CC(=O)NCCOCC(=O)N1CCN(c3nnc(C4CCC(=O)NC4=O)c4ccccc34)CC1)c1nnc(C)n1-2` (stereo partly shown) [PRTB-11], at BRD protein, the DC50 is more than 10 µM and the Dmax is less than 50%.

Regarding `Cc1sc2c(c1C)C(c1ccc(Cl)cc1)=N[C@@H](CC(=O)NCCOCC(=O)N1CCN(c3nnc(C4CCC(=O)NC4=O)c4c3CCCC4)CC1)c1nnc(C)n1-2` (stereo partly shown) [PRTB-10], at BRD protein, the DC50 is more than 10 µM and the Dmax was less than 50%.

For the molecule `Cc1cc(N2CCN(C(=O)COCCNC(=O)C[C@@H]3N=C(c4ccc(Cl)cc4)c4c(sc(C)c4C)-n4c(C)nnc43)CC2)nnc1C1CCC(=O)NC1=O` (stereo partly shown) [PRTB-09], at BRD protein, the DC50 is 1 to 10 µM and the Dmax fell in the range of 50 to 85%.

With `Cc1sc2c(c1C)C(c1ccc(Cl)cc1)=N[C@@H](CC(=O)NCCCCNC(=O)COc1ccc(C3CCC(=O)NC3=O)nn1)c1nnc(C)n1-2` (stereo partly shown) [PRTB-01], at BRD protein, the DC50 fell in the range of 1 to 10 µM and the Dmax was less than 50%.

Take `Cc1sc2c(c1C)C(c1ccc(Cl)cc1)=N[C@@H](CC(=O)NCCCOCC(=O)N1CCN(c3ccc(C4CCC(=O)NC4=O)nn3)CC1)c1nnc(C)n1-2` (stereo partly shown) [PRTB-07]: at BRD protein, the DC50 was more than 10 µM and the Dmax is less than 50%.

For `Cc1sc2c(c1C)C(c1ccc(Cl)cc1)=N[C@@H](CC(=O)NCCCCCNC(=O)C#Cc1ccc(C3CCC(=O)NC3=O)nn1)c1nnc(C)n1-2` (stereo partly shown) [PRTB-13], at BRD protein, the DC50 is less than 1 µM and the Dmax was more than 85%.

Take `Cc1sc2c(c1C)C(c1ccc(Cl)cc1)=N[C@@H](CC(=O)NCCCCCOC1CN(c3ccc(C4CCC(=O)NC4=O)nn3)C1)c1nnc(C)n1-2` (stereo partly shown) [PRTB-12]: at BRD protein, the DC50 was less than 1 µM and the Dmax is more than 85%.

On BRD protein, `Cc1sc2c(c1C)C(c1ccc(Cl)cc1)=N[C@@H](CC(=O)NCCCn1ccc(C#Cc3ccc(C4CCC(=O)NC4=O)nn3)n1)c1nnc(C)n1-2` (stereo partly shown) [PRTB-14] displayed a DC50 of less than 1 µM and a Dmax of 50 to 85%.

For the molecule `Cc1sc2c(c1C)C(c1ccc(Cl)cc1)=N[C@@H](CC(=O)NCCCC(=O)N1CCN(c3ccc(C4CCC(=O)NC4=O)nn3)CC1)c1nnc(C)n1-2` (stereo partly shown) [PRTB-04], at BRD protein, the DC50 is 1 to 10 µM and the Dmax was less than 50%.

On to `Cc1sc2c(c1C)C(c1ccc(Cl)cc1)=N[C@@H](CC(=O)NCCCCC(=O)N1CCN(c3ccc(C4CCC(=O)NC4=O)nn3)CC1)c1nnc(C)n1-2` (stereo partly shown) [PRTB-05], for which, at BRD protein, the DC50 was 1 to 10 µM and the Dmax is less than 50%.
